Experimental data taken from patent US20070020183A1, “Perfluoroalkyl-containing complexes, process for their production as well as their use” (priority 2005, published 2007).

Assays:
mice = test: Acute toxicity after one-time intravenous administration in mice; assay type: in vivo; settings: one-time i.v., observation period of 7 days, determined preliminarily
Procedure: After intravenous administration of the gadolinium complexes (I-X) in mice (n=3; rate of injection: 2 ml/min), the acute systemic compatibility (LD50) was determined preliminarily. In each case, several dosages with an observation period of 7 days were examined. The acute toxicities that are to be expected can be seen in Table 1.

[1] = Relaxivity in water (NMR pulse spectrometer Minispec PC 20); assay type: physicochemical; settings: 40° C., 0.47 T
Procedure: The T1 and T2 relaxation times of water and plasma (from cows) with increasing concentrations of the gadolinium complexes (I-XIII) contained therein were determined at 40° C. with use of an NMR pulse spectrometer (Minispec PC 20) at 0.47 T, and the relaxivity was determined.

[2] = Plasma kinetics after intravenous administration in rats (ICP-AES); assay type: in vivo; settings: i.v., 50 μmol of total gadolinium/kg of body weight
Procedure: After intravenous administration of 50 μmol of total gadolinium/kg of body weight of the gadolinium complexes (I-X) in rats (n=3), blood samples were taken via a catheter in the common carotid artery at different points in time ([…] to 24 hours p.i.), the metal content was determined by means of atomic emission spectrometry (ICP-AES) and converted to plasma values via a conversion factor (0.625). The elimination half-life was calculated by means of special software (WinNonlin) from the plasma concentrations.

[3] = Excretion after intravenous administration in rats (ICP-AES); assay type: in vivo; settings: i.v., 50 μmol of total gadolinium/kg of body weight, 14 days after administration
Excerpt: After intravenous administration of 50 μmol of total gadolinium/kg of body weight of the gadolinium complexes (I-X) in rats (n=3), the metal content was l determined in fractions up to 14 days after administration by means of atomic emission spectrometry (ICP-AES) in the excretion media of urine and feces, as well as in the body (the rest of the body).

arteriosclerotic plaque = test: MRT visualization of arteriosclerotic plaque; assay type: in vivo, Watanabe rabbits (WHHL rabbits); settings: WHHL rabbits, i.v. 50 μmol or 100 μmol of Gd/kg, 6 or 24 hours, T1-weighted IR-TFL; not in vascular wall of healthy control animals
Procedure: The pictures of FIG. 2 show MR images of the aorta 6 or 24 hours after intravenous administration of 50 μmol or 100 μmol of Gd/kg of body weight of gadolinium complex I (title substance of Example 1f), gadolinium complex IV (title substance of Example 11e), and gadolinium complex VIII (title substance of Example 16c) in Watanabe rabbits (WHHL rabbits; genetically-induced arteriosclerosis) and in control animals without arteriosclerosis (white New Zealands). […] The localization of the plaque, especially in the aortic arch as well as in the vascular passages, was confirmed by means of Sudan-3 staining. With this test, the suitability of the compounds according to the invention as markers for arteriosclerotic plaque could be shown.

Row | SMILES | LD50 Mouse (mice) | Relaxivity R1(w) [1] | Elimination Half-Life of Blood [2] | Gd Content of Blood 24 Hours p.i. [2] | Body Retention 14 days [3] | MR signal in the arteriosclerotic plaque (arteriosclerotic plaque)
1 | CC(C(=O)NCC(=O)NCCCC[C@H](NC(=O)CO[C@H]1O[C@H](CO)[C@@H](O)[C@H](O)[C@@H]1O)C(=O)NCCCC(F)(F)C(F)(F)C(F)(F)C(F)(F)C(F)(F)C(F)(F)F)N1CCN(CC(=O)[O-])CCN(CC(=O)[O-])CCN(CC(=O)[O-])CC1.[Gd+3] (stereo partly drawn) [Gadolinium complex II, Gadolinium complex of 6-N-[1,4,7-tris-(carboxylatomethyl)-1,4,7,10-tetraazacyclododecane-10-N-(pentanoyl-3-aza-4-oxo-5-methyl-5-yl)]-2-N-(1-O-α-d-carbonylmethylmannopyranose)-L-lysine-[(1H,1H,2H,2H-perfluorooctyl)-methyl]-amide] | 10 mmol/kg | R1(w): 5.7 l/(mmol * s) | 0.9 hour^ hours | 0.0% | 0.0% | 
2 | CC(C(=O)NCC(=O)NCCCC[C@H](NC(=O)CO[C@H]1O[C@H](CO)[C@@H](O)[C@H](O)[C@@H]1O)C(=O)NCCCOCCC(F)(F)C(F)(F)C(F)(F)C(F)(F)C(F)(F)C(F)(F)C(F)(F)C(F)(F)F)N1CCN(CC(=O)[O-])CCN(CC(=O)[O-])CCN(CC(=O)[O-])CC1.[Gd+3] (stereo partly drawn) [Gadolinium complex III, Gadolinium complex of 6-N-[1,4,7-tris-(carboxylatomethyl)-1,4,7,10-tetraazacyclododecane-10-N-(pentanoyl-3-aza-4-oxo-5-methyl-5-yl)]-2-N-(1-O-α-d-carbonylmethylmannopyranose)-L-lysine-[(1H,1H,2H,2H,4H,4H,5H,5H-3-oxa-perfluorotridecyl)-methyl]-amide] | ≧10 mmol/kg | R1(w): 17.8 l/(mmol * s) | 6.2 h | 1.6% | 1.5% | 
3 | COCCN(CCC(F)(F)C(F)(F)C(F)(F)C(F)(F)C(F)(F)C(F)(F)C(F)(F)C(F)(F)F)C(=O)[C@H](CCCCNC(=O)CNC(=O)C(C)N1CCN(CC(=O)[O-])CCN(CC(=O)[O-])CCN(CC(=O)[O-])CC1)NC(=O)CO[C@H]1O[C@H](CO)[C@@H](O)[C@H](O)[C@@H]1O.[Gd+3] (stereo partly drawn) [Gadolinium complex V, Gadolinium complex of 6-N-[1,4,7-tris-(carboxylatomethyl)-1,4,7,10-tetraazacyclododecane-10-N-(pentanoyl-3-aza-4-oxo-5-methyl-5-yl)]-2-N-(1-O-α-d-carbonylmethylmannopyranose)-L-lysine-N-(2-methoxyethyl)-N-(1H,1H,2H,2H-perfluorodecyl)-amide] | 15 mmol/kg | R1(w): 18.3 l/(mmol * s) | 6.7 h | 2.1% | 0.0% | 
4 | COCCN(CCOCCC(F)(F)C(F)(F)C(F)(F)C(F)(F)C(F)(F)C(F)(F)C(F)(F)C(F)(F)F)C(=O)[C@H](CCCCNC(=O)CNC(=O)C(C)N1CCN(CC(=O)[O-])CCN(CC(=O)[O-])CCN(CC(=O)[O-])CC1)NC(=O)CO[C@H]1O[C@H](CO)[C@@H](O)[C@H](O)[C@@H]1O.[Gd+3] (stereo partly drawn) [Gadolinium complex IV, Gadolinium complex of 6-N-[1,4,7-tris-(carboxylatomethyl)-1,4,7,10-tetraazacyclododecane-10-N-(pentanoyl-3-aza-4-oxo-5-methyl-5-yl)]-2-N-(1-O-α-d-carbonylmethylmannopyranose)-L-lysine-N-(2-methoxyethyl)-N-(1H,1H,2H,2H,4H,4H,5H,5H-3-oxa-perfluorotridecyl)-amide] | ≧15 mmol/kg | R1(w): 16.6 l/(mmol * s) | 5.3 h | 1.8% | 2.6% | strong signal rise
5 | COC[C@H]1O[C@H](OCC(=O)NC(CCCCNC(=O)CNC(=O)C(C)N2CCN(CC(=O)[O-])CCN(CC(=O)[O-])CCN(CC(=O)[O-])CC2)C(=O)N(C)CCC(F)(F)C(F)(F)C(F)(F)C(F)(F)C(F)(F)C(F)(F)C(F)(F)C(F)(F)F)[C@@H](OC)[C@@H](OC)[C@@H]1OC.[Gd+3] (stereo partly drawn) [Gadolinium complex VII, Gadolinium complex of 6-N-[1,4,7-tris-(carboxylatomethyl)-1,4,7,10-tetraazacyclododecane-10-N-(pentanoyl-3-aza-4-oxo-5-methyl-5-yl)]-2-N-[1-O-α-d-carbonylmethyl-(2,3,4,6-tetra-O-methyl)mannopyranose]-L-lysine-[(1H,1H,2H,2H-perfluorodecyl)-methyl]-amide] | ≦15 mmol/kg | R1(w): 14.7 l/(mmol * s) | 5.4 h | 1.2% | 5.4% | 
6 | CC(C(=O)NCC(=O)NCCCC[C@H](NC(=O)COCC(CO)(CO)CO)C(=O)NCCCC(F)(F)C(F)(F)C(F)(F)C(F)(F)C(F)(F)C(F)(F)C(F)(F)C(F)(F)F)N1CCN(CC(=O)[O-])CCN(CC(=O)[O-])CCN(CC(=O)[O-])CC1.[Gd+3] (stereo partly drawn) [Gadolinium complex VI, Gadolinium complex of 6-N-[1,4,7-tris-(carboxylatomethyl)-1,4,7,10-tetraazacyclododecane-10-N-(pentanoyl-3-aza-4-oxo-5-methyl-5-yl)]-2-N-[(3-hydroxy-2,2-dihydroxymethylpropoxy)-acetyl]-L-lysine-[(1H,1H,2H,2H-perfluorodecyl)-methyl]-amide] | >10 mmol/kg | R1(w): 16.9 l/(mmol * s) | 7.7 h | 2.6% | 0.0% | 
7 | CC(C(=O)NCC(=O)N[C@@H](CCCCNC(=O)CO)C(=O)NCCCC(F)(F)C(F)(F)C(F)(F)C(F)(F)C(F)(F)C(F)(F)C(F)(F)C(F)(F)F)N1CCN(CC(=O)[O-])CCN(CC(=O)[O-])CCN(CC(=O)[O-])CC1.[Gd+3] (stereo partly drawn) [Gadolinium complex IX, Gadolinium complex of 2-N-[1,4,7-tris-(carboxylatomethyl)-1,4,7,10-tetraazacyclododecane-10-N-(pentanoyl-3-aza-4-oxo-5-methyl-5-yl)]-6-N-(2-hydroxyacetyl)-L-lysine-[(1H,1H,2H,2H-perfluorodecyl)-methyl]-amide] | >10 mmol/kg | R1(w): 18.8 l/(mmol * s) | 4.3 h | 0.5% | 0.2% | 
